Where two headings read alike, the source gives them in different places.
What was measured:
[1] = test system: HIF-1β protein expression in A375 melanoma cells; experiment: HIF-1β protein expression in A375 cells (immunoblot); assay type: cell-based, human; conditions: hypoxia (Cl-IB-MECA: normoxia and hypoxia)
Experimental: (§1) Cell culture and hypoxia treatment: Cells were maintained in DMEM (A375), EMEM (NCTC 2544) or RPMI 1640 (U87MG, U2OS) medium containing 10% fetal calf serum, penicillin (100 U/ml), streptomycin (100 ug/ml), and L-glutamine (2 mM) at 37° C. in 5% CO2/95% air. Cells were passaged two or three times weekly at a ratio between 1:5 and 1:10. Hypoxic exposure was in BBL™ GasPak pouch™ System (Becton Dickinson) that reduce oxygen concentration of less than 2% within 2 hours of incubation at 35° C.
(§2) Cells were harvested and washed with ice-cold PBS containing 1 mM sodium orthovanadate, AEBSF 104 mM, aprotinin 0.08 mM, leupeptin 2 mM, bestatin 4 mM, pepstatin A 1.5 mM, E-64 1.4 mM. Cells were then lysed in Triton lysis buffer. The protein concentration was determined using BCA protein assay kit (Pierce). Equivalent amounts of protein (35 ug) were subjected to electrophoresis on 7.5% sodium dodecyl sulfate-acrylamide gel. The gel was then electroblotted onto a nitrocellulose membrane. Membranes were blocked with 5% nonfat dry milk in PBS containing 0.1% Tween-20 and incubated with antibodies against HIF-1α (1:250 dilution) and HIF-1β (1:1000 dilution) in 5% nonfat dry milk in PBS/0.1% Tween-20 overnight at 4° C. Aliquots of total protein sample (50 μg) were analyzed using antibodies specific for phosphorylated (Thr183/Tyr185) or total p44/p42 MAPK (1:5000 dilution), phosphorylated (Thr180/Tyr182) or total p38 MAPK (1:1000 dilution) and for A3 receptor (1 μg/ml dilution). Filters were washed and incubated for 1 hour at room temperature with peroxidase-conjugated secondary antibodies against mouse and rabbit IgG (1:2000 dilution). […] The membranes were then stripped and reprobed with tubulin (1:250) to ensure equal protein loading.

[2] = intact anesthetized rabbits studied in situ; cited from earlier work
[3] = test system: p44/p42 MAPK phosphorylation in A375 cells; experiment: p44/p42 MAPK phosphorylation in hypoxic A375 cells (immunoblot); assay type: cell-based, human; conditions: 4 hours in hypoxia
Experimental: (§3) Cells were harvested and washed with ice-cold PBS containing 1 mM sodium orthovanadate, AEBSF 104 mM, aprotinin 0.08 mM, leupeptin 2 mM, bestatin 4 mM, pepstatin A 1.5 mM, E-64 1.4 mM. Cells were then lysed in Triton lysis buffer. The protein concentration was determined using BCA protein assay kit (Pierce). Equivalent amounts of protein (35 ug) were subjected to electrophoresis on 7.5% sodium dodecyl sulfate-acrylamide gel. The gel was then electroblotted onto a nitrocellulose membrane. Membranes were blocked with 5% nonfat dry milk in PBS containing 0.1% Tween-20 and incubated with antibodies against HIF-1α (1:250 dilution) and HIF-1β (1:1000 dilution) in 5% nonfat dry milk in PBS/0.1% Tween-20 overnight at 4° C. Aliquots of total protein sample (50 μg) were analyzed using antibodies specific for phosphorylated (Thr183/Tyr185) or total p44/p42 MAPK (1:5000 dilution), phosphorylated (Thr180/Tyr182) or total p38 MAPK (1:1000 dilution) and for A3 receptor (1 μg/ml dilution). Filters were washed and incubated for 1 hour at room temperature with peroxidase-conjugated secondary antibodies against mouse and rabbit IgG (1:2000 dilution). […]
(§4) Densitometry analysis: The intensity of each band in immunoblot assay was quantified using molecular analyst/PC densitometry software (Bio-Rad). […] The data were presented as the mean±S.E., and analyzed by the Student's test.

[4] = test system: HIF-1α protein expression in NCTC 2544 keratinocytes; experiment: HIF-1α protein expression in NCTC 2544 keratinocytes under hypoxia; assay type: cell-based, human; conditions: NCTC 2544, Cl-IB-MECA 100 nM, 4 hours of hypoxia
Experimental: as §1
as §3, with “Membranes were blocked with 5% nonfat dry milk in PBS containing 0.1% Tween-20 and incubated with antibodies against HIF-1α (1:250 dilution) and HIF-1β (1:1000 dilution) in 5% nonfat dry milk in PBS/0.1% Tween-20 overnight at 4° C.” left out, “dilution).” for “dilution). Filters were washed and incubated for 1 hour at room temperature with peroxidase-conjugated secondary antibodies against mouse and rabbit IgG (1:2000 dilution).”

[5] = test system: p38 MAPK phosphorylation in A375 cells; experiment: p38 MAPK phosphorylation in hypoxic A375 cells (immunoblot); assay type: cell-based, human; conditions: 4 hours in hypoxia, various concentrations
Experimental: as §3, §4

[6] = test system: HIF-1α protein expression in U87MG glioblastoma cells; experiment: HIF-1α protein expression in U87MG glioblastoma cells under hypoxia; assay type: cell-based, human; conditions: Cl-IB-MECA 100 nM, 4 hours of hypoxia
Experimental: as §1
as §3, with “Membranes were blocked with 5% nonfat dry milk in PBS containing 0.1% Tween-20 and incubated with antibodies against HIF-1α (1:250 dilution) and HIF-1β (1:1000 dilution) in 5% nonfat dry milk in PBS/0.1% Tween-20 overnight at 4° C.” left out, “dilution).” for “dilution). Filters were washed and incubated for 1 hour at room temperature with peroxidase-conjugated secondary antibodies against mouse and rabbit IgG (1:2000 dilution).”

[7] = test system: HIF-1α protein expression in U2OS osteosarcoma cells; experiment: HIF-1α protein expression in U2OS osteosarcoma cells under hypoxia; assay type: cell-based, human; conditions: Cl-IB-MECA 100 nM, 4 hours of hypoxia
Experimental: as §1
as §3, with “Membranes were blocked with 5% nonfat dry milk in PBS containing 0.1% Tween-20 and incubated with antibodies against HIF-1α (1:250 dilution) and HIF-1β (1:1000 dilution) in 5% nonfat dry milk in PBS/0.1% Tween-20 overnight at 4° C.” left out, “dilution).” for “dilution). Filters were washed and incubated for 1 hour at room temperature with peroxidase-conjugated secondary antibodies against mouse and rabbit IgG (1:2000 dilution).”

[8] = test system: HIF-1α protein degradation in A375 cells; experiment: HIF-1α degradation after return of hypoxic A375 cells to normoxia; assay type: cell-based, human; conditions: Cl-IB-MECA 100 nM, 4 hours hypoxia then normoxia 0-15 minutes
Experimental: as §3, §4

[9] = test system: HIF-1α protein expression in A375 melanoma cells; experiment: HIF-1α protein accumulation in A375 cells (immunoblot, densitometry); assay type: cell-based, human; conditions: for prevention of adenosine-induced HIF-1α protein expression: adenosine 100 μM, antagonist 100 nM, hypoxia 4 hours; for abrogation of the effect of Cl-IB-MECA in HIF-1α modulation: antagonist 10 and 100 nM, Cl-IB-MECA 10 and 100 nM; for inhibition of Cl-IB-MECA-induced increase of HIF-1α protein expression: U0126 10 and 30 μM, SB202190 1 and 10 μM
Experimental: as §1
as §2, with “Equivalent amounts of protein (35 ug) were subjected to electrophoresis on 7.5% sodium dodecyl sulfate-acrylamide gel.” left out
U0126 was used at 10 and 30 uM as inhibitor of MEK-1 and MEK-2 to prevent p44 and p42 MAPK activation. SB202190 was used at 1 and 10 μM as inhibitor of p38 MAPK.
as §4

[10] = transient middle cerebral artery occlusion focal ischemia; cited from earlier work
[11] = rat 4 vessel occlusion model; cited from earlier work
[12] = Cl-IB-MECA 100 nM, 4 hours in hypoxia

Nc1ncnc2c1ncn2[C@@H]1O[C@H](CO)[C@@H](O)[C@H]1O [adenosine]
modulation of HIF-1β protein expression [1]: did not observe any modulation

C[C@H](Cc1ccccc1)Nc1ncnc2c1ncn2[C@@H]1O[C@H](CO)[C@@H](O)[C@H]1O [PIA, N^6-1-(phenyl-2R-isopropyl) adenosine]
cardioprotection [2]: pharmacologically induce cardioprotection

CNC(=O)[C@H]1O[C@@H](n2cnc3c(NCc4cccc(I)c4)nc(Cl)nc32)[C@H](O)[C@@H]1O [Cl-IB-MECA]
modulation of HIF-1β protein expression [1]: did not modify
concentration giving maximum induction of p44/p42 phosphorylation [3]: 100 nM
phosphorylation of p44 and p42 ([3]; nanomolar concentrations): induced
HIF-1α protein expression [4]: significant increase
phosphorylation of p38 MAPK [5]: increased the phosphorylation of p38 MAPK in a dose-dependent manner
HIF-1α protein expression [6]: significant increase
HIF-1α protein expression [7]: significant increase
HIF-1α degradation rate after removal of hypoxic conditions [8]: unchanged degradation rate
HIF-1α protein levels in CoCl2-treated cells ([9]; 100 μM CoCl2, normoxia, 4 hours): able to increase the levels of HIF-1α protein
HIF-1α levels in cells exposed to cycloheximide ([9]; 100 μM CoCl2, normoxia, Cl-IB-MECA 100 nM, CHX 1 μM, within 6 hours): failed to increase
HIF-1α protein expression in the presence of actinomycin D ([9]; Act-D 10 μg/ml, Cl-IB-MECA 100 nM, 4 hours in hypoxia): able to increase HIF-1α protein expression also in the presence of Act-D
concentration inducing maximum expression of HIF-1α protein ([9]; hypoxia, 4 hours): 100 nM
time of maximum peak HIF-1α levels after addition ([9]; hypoxia, Cl-IB-MECA 100 nM): 4 h
HIF-1α protein expression under hypoxic conditions, time course ([9]; hypoxia, Cl-IB-MECA 100 nM, 2-24 hours): increased in a time-dependent manner
HIF-1α protein accumulation in normoxia ([9]; normoxia, Cl-IB-MECA 100 nM): did not promote HIF-1α protein accumulation

CCCn1c(=O)c2[nH]c(-c3cc(OCC(=O)Nc4ccc5c(c4)OCO5)nn3C)nc2n(CCC)c1=O [MRE 2029F20]
prevention of adenosine-induced HIF-1α protein expression [9]: not able to prevent

CSCC[C@@H]1NC(=O)[C@H](CC(C)C)NC(=O)[C@H](CCCNC(=N)N)NC(=O)[C@H](CO)NC(=O)[C@@H]2CSSC[C@@H]3NC(=O)[C@H](CO)NC(=O)CNC(=O)[C@H]([C@@H](C)O)NC(=O)[C@H](CSSC[C@H](N)C(=O)N[C@@H](CCCCN)C(=O)NCC(=O)N[C@@H](CCCCN)C(=O)NCC(=O)N[C@@H](C)C(=O)N[C@@H](CCCCN)C(=O)N2)NC(=O)[C@H](CSSC[C@@H](C(N)=O)NC(=O)[C@H](CCCCN)NC(=O)CNC(=O)[C@H](CO)NC(=O)[C@H](CCCNC(=N)N)NC3=O)NC(=O)[C@H](CC(=O)O)NC(=O)[C@H](Cc2ccc(O)cc2)NC1=O [SNX-111]
neuroprotection [10]: neuroprotective
neuroprotection [11]: neuroprotective

Cn1cc2c(nc(NC(=O)Nc3ccncc3)n3nc(-c4ccco4)nc23)n1 [MRE 3005F20]
modulation of HIF-1β protein expression [1]: neither MRE 3008F20 nor MRE 3005F20 had any effect
abrogation of the effect of Cl-IB-MECA in HIF-1α modulation ([9]; hypoxia): able to abrogate

N#CC(=C(/N)Sc1ccccc1N)/C(C#N)=C(\N)Sc1ccccc1N [U0126]
inhibition of Cl-IB-MECA-induced increase of HIF-1α protein expression [9, 12]: able to inhibit

Nc1nc2c(cnn2CCc2ccccc2)c2nc(-c3ccco3)nn12 [SCH 58261, 5-amino-7-(2-phenylethyl)-2-(2-furyl)-pyrazolo[4,3-e]-1,2,4-triazolo[1,5-c]pyrimidine]
prevention of adenosine-induced HIF-1α protein expression [9]: not able to prevent

CCCn1cc2c(nc(NC(=O)Nc3ccc(OC)cc3)n3nc(-c4ccco4)nc23)n1 [MRE 3008F20]
modulation of HIF-1β protein expression [1]: neither MRE 3008F20 nor MRE 3005F20 had any effect
prevention of adenosine-induced HIF-1α protein expression [9]: abrogated
abrogation of the effect of Cl-IB-MECA in HIF-1α modulation ([9]; hypoxia): able to abrogate
IC50 ([9]; read-out: IC50 for inhibition of HIF-1α protein increase induced by 10 nM Cl-IB-MECA, hypoxia 4 hours, MRE 3008F20 0.3-30 nM): 0.9 ± 0.08 nM

Oc1ccc(-c2nc(-c3ccncc3)c(-c3ccc(F)cc3)[nH]2)cc1 [SB202190]
inhibition of Cl-IB-MECA-induced increase of HIF-1α protein expression [9, 12]: able to inhibit

From US20060194756A1 (priority 2004, published 2006)
